# Source: US20210024542A1 (Torcept Therapeutics, Inc., priority 2018, published 2021)
# Read-outs that look alike come from different tables or passages of the source.
# How the values were obtained:
# AGS = assay: OncoPanel cell proliferation assay, AGS; assay type: cell-based, human
# Protocol: (§1) Cells were grown in RPMI 1640, 10% FBS, 2 mM L-alanyl-L-glutamine, 1 mM Na pyruvate, or a special medium. Cells were seeded into 384-well plates and incubated in a humidified atmosphere of 5% CO2 at 37° C. Compounds were added the day following cell seeding. At the same time, a time zero untreated cell plate was generated. After a 3-day incubation period, cells were fixed and stained to allow fluorescence imaging of nuclei. Compounds (1 mM stock solutions) were serially diluted in half-log steps from the highest test concentration ([…]), and assayed over 10 concentrations with a maximum assay concentration of 0.1% DMSO. Automated fluorescence microscopy was carried out using a Molecular Devices ImageXpress Micro XL high-content imager, and images were collected with a 4× objective. 16-bit TIFF images were acquired and analyzed with MetaXpress 5.1.0.41 software.
# (§2) Cell proliferation was measured by the fluorescence intensity of an incorporated nuclear dye. The output is referred to as the relative cell count, where the measured nuclear intensity is transformed to percent of control (POC) using the following formula: […]
# (§3) Cellular response parameters were calculated using nonlinear regression to a sigmoidal single-site dose response model:
# (§4) Where y is a response measured at concentration x, A and B are the lower and upper limits of the response, C is the concentration at the response midpoint (EC50), and D is the Hill Slope (Ref. 1).
# (§5) EC50 is the test compound concentration at the curve inflection point or half the effective response (parameter C of the fitted curve solution). GI50 is the concentration needed to reduce the observed growth by half (midway between the curve maximum and the time zero value). “Cell Count Activity Area” is an estimate of the integrated area above the curve (Barretina, et al. The Cancer Cell Line Encyclopedia enables predictive modelling of anticancer drug sensitivity. Nature 483: 603-607). […] In rare instances, values <0 or >10 may be observed. […] Curve-fitting, calculations, and report generation was performed using a custom data reduction engine and MathIQ based software (AIM).
# SCaBER = assay: OncoPanel cell proliferation assay, SCaBER; assay type: cell-based, human
# Protocol: as §1, §2, §3, §4, §5
# SW579 = assay: OncoPanel cell proliferation assay, SW579; assay type: cell-based, human; conditions: for Relative cell count (%) Mean: SW579
# Protocol: as §1, §2, §3, §4, §5
# SW684 = assay: OncoPanel cell proliferation assay, SW684; assay type: cell-based, human; conditions: for Relative cell count (%) Mean: SW684
# Protocol: as §1, with “Cells” for “Cells were grown in RPMI 1640, 10% FBS, 2 mM L-alanyl-L-glutamine, 1 mM Na pyruvate, or a special medium. Cells”
# as §2, §3, §4
# GI50 is the concentration needed to reduce the observed growth by half (midway between the curve maximum and the time zero value). […] In rare instances, values <0 or >10 may be observed. […] Curve-fitting, calculations, and report generation was performed using a custom data reduction engine and MathIQ based software (AIM).
# SK-N-AS = assay: OncoPanel cell proliferation assay, SK-N-AS; assay type: cell-based, human
# Protocol: as §1, §2, §3, §4, §5
# PC-3 = assay: OncoPanel cell proliferation assay, PC-3; conditions: for Relative cell count (%) Mean: PC-3
# Protocol: Cells were seeded into 384-well plates and incubated in a humidified atmosphere of 5% CO2 at 37° C. Compounds were added the day following cell seeding. At the same time, a time zero untreated cell plate was generated. After a 3-day incubation period, cells were fixed and stained to allow fluorescence imaging of nuclei. Compounds (1 mM stock solutions) were serially diluted in half-log steps from the highest test concentration (1 micromol), and assayed over 10 concentrations with a maximum assay concentration of 0.1% DMSO. Automated fluorescence microscopy was carried out using a Molecular Devices ImageXpress Micro XL high-content imager, and images were collected with a 4× objective. 16-bit TIFF images were acquired and analyzed with MetaXpress 5.1.0.41 software.
# [1] = Homo sapiens, 72 h, 3-day incubation, read-out: Cell Count EC50
# [2] = Homo sapiens, 72 h, 3-day incubation, read-out: Cell Count GI50
# [3] = Homo sapiens, 72 h, 3-day incubation, read-out: Cell Count IC50
smiles,measurement,setting,value
"CO[C@H]1C[C@@H]2CC[C@@H](C)[C@@](O)(O2)C(=O)C(=O)N2CCCC[C@H]2C(=O)O[C@H]([C@H](C)C[C@@H]2C[C@@H]3C[C@H]2C[C@H]3O)CC(=O)[C@H](C)/C=C(\C)[C@@H](O)[C@@H](OC)C(=O)[C@H](C)C[C@H](C)/C=C/C=C/C=C/1C [Formula I, 37R-hydroxynorbornylrapamycin]",Relative cell count (%) Mean,AGS; 1.00E+00 microM,32.3%
same,Relative cell count (%) Mean,AGS; 1.00E−01 microM,39.3%
same,Relative cell count (%) Mean,AGS; 1.00E−02 microM,39.1%
same,Relative cell count (%) Mean,AGS; 1.00E−03 microM,39.8%
same,Relative cell count (%) Mean,AGS; 1.01E−04 microM,58.2%
same,Relative cell count (%) Mean,AGS; 3.16E−01 microM,38.3%
same,Relative cell count (%) Mean,AGS; 3.17E−02 microM,34.7%
same,Relative cell count (%) Mean,AGS; 3.17E−03 microM,40.1%
same,Relative cell count (%) Mean,AGS; 3.18E−04 microM,45.6%
same,Relative cell count (%) Mean,AGS; 3.18E−05 microM,82.7%
same,EC50,AGS; [1],0.0635 nM
same,GI50,AGS; [2],0.136 nM
same,IC50,AGS; [3],0.186 nM
same,Cell Count Activity Area,AGS; scale 0-10,5.50
same,Relative cell count (%) Mean,SCaBER; 1.00E+00 microM,32.4%
same,Relative cell count (%) Mean,SCaBER; 1.00E−01 microM,36.9%
same,Relative cell count (%) Mean,SCaBER; 1.00E−02 microM,35.4%
same,Relative cell count (%) Mean,SCaBER; 1.00E−03 microM,44.7%
same,Relative cell count (%) Mean,SCaBER; 1.01E−04 microM,61.7%
same,Relative cell count (%) Mean,SCaBER; 3.16E−01 microM,33.0%
same,Relative cell count (%) Mean,SCaBER; 3.17E−02 microM,34.0%
same,Relative cell count (%) Mean,SCaBER; 3.17E−03 microM,38.7%
same,Relative cell count (%) Mean,SCaBER; 3.18E−04 microM,55.4%
same,Relative cell count (%) Mean,SCaBER; 3.18E−05 microM,81.9%
same,EC50,SCaBER; [1],0.0947 nM
same,GI50,SCaBER; [2],0.262 nM
same,IC50,SCaBER; [3],0.451 nM
same,EC50,"SCaBER; Homo sapiens, Table 4 summary, Bladder, read-out: EC50",0.095 nM
same,Cell Count Activity Area,SCaBER; scale 0-10,5.46
same,EC50,"SW579; Homo sapiens, 72 h, SW579, 3-day incubation, read-out: Cell Count EC50",0.0616 nM
same,GI50,"SW579; Homo sapiens, 72 h, SW579, 3-day incubation, read-out: Cell Count GI50",0.152 nM
same,IC50,"SW579; Homo sapiens, 72 h, SW579, 3-day incubation, read-out: Cell Count IC50",0.367 nM
same,Cell Count Activity Area,"SW579; SW579, scale 0-10",5.31
same,Relative cell count (%) Mean,SW579; 1.00E+00 microM,35.3%
same,Relative cell count (%) Mean,SW579; 1.00E−01 microM,35.8%
same,Relative cell count (%) Mean,SW579; 1.00E−02 microM,42.8%
same,Relative cell count (%) Mean,SW579; 1.00E−03 microM,44.2%
same,Relative cell count (%) Mean,SW579; 1.01E−04 microM,63.2%
same,Relative cell count (%) Mean,SW579; 3.16E−01 microM,37.9%
same,Relative cell count (%) Mean,SW579; 3.17E−02 microM,38.4%
same,Relative cell count (%) Mean,SW579; 3.17E−03 microM,44.6%
same,Relative cell count (%) Mean,SW579; 3.18E−04 microM,48.4%
same,Relative cell count (%) Mean,SW579; 3.18E−05 microM,78.0%
same,EC50,"SW684; Homo sapiens, 72 h, SW684, 3-day incubation, read-out: Cell Count EC50",0.477 nM
same,GI50,"SW684; Homo sapiens, 72 h, SW684, 3-day incubation, read-out: Cell Count GI50",0.286 nM
same,IC50,"SW684; Homo sapiens, 72 h, SW684, 3-day incubation, read-out: Cell Count IC50",21.1 nM
same,Cell Count Activity Area,"SW684; SW684, scale 0-10",3.93
same,Relative cell count (%) Mean,SW684; 1.00E+00 microM,44.1%
same,Relative cell count (%) Mean,SW684; 1.00E−01 microM,51.0%
same,Relative cell count (%) Mean,SW684; 1.00E−02 microM,55.0%
same,Relative cell count (%) Mean,SW684; 1.00E−03 microM,68.8%
same,Relative cell count (%) Mean,SW684; 1.01E−04 microM,89.3%
same,Relative cell count (%) Mean,SW684; 3.16E−01 microM,47.1%
same,Relative cell count (%) Mean,SW684; 3.17E−02 microM,52.7%
same,Relative cell count (%) Mean,SW684; 3.17E−03 microM,60.7%
same,Relative cell count (%) Mean,SW684; 3.18E−04 microM,77.8%
same,Relative cell count (%) Mean,SW684; 3.18E−05 microM,91.9%
same,Relative cell count (%) Mean,SK-N-AS; 1.00E+00 microM,45.8%
same,Relative cell count (%) Mean,SK-N-AS; 1.00E−01 microM,51.0%
same,Relative cell count (%) Mean,SK-N-AS; 1.00E−02 microM,53.6%
same,Relative cell count (%) Mean,SK-N-AS; 1.00E−03 microM,62.3%
same,Relative cell count (%) Mean,SK-N-AS; 1.01E−04 microM,84.8%
same,Relative cell count (%) Mean,SK-N-AS; 3.16E−01 microM,48.3%
same,Relative cell count (%) Mean,SK-N-AS; 3.17E−02 microM,52.4%
same,Relative cell count (%) Mean,SK-N-AS; 3.17E−03 microM,56.7%
same,Relative cell count (%) Mean,SK-N-AS; 3.18E−04 microM,77.7%
same,Relative cell count (%) Mean,SK-N-AS; 3.18E−05 microM,102.1%
same,EC50,SK-N-AS; [1],0.283 nM
same,GI50,SK-N-AS; [2],0.826 nM
same,IC50,SK-N-AS; [3],7.35 nM
same,Cell Count Activity Area,SK-N-AS; scale 0-10,3.99
same,EC50,"PC-3; Homo sapiens, PC-3, 72 h, read-out: Cell Count EC50",0.346 nM
same,GI50,"PC-3; Homo sapiens, PC-3, 72 h, read-out: Cell Count GI50",1.89 nM
same,IC50,"PC-3; Homo sapiens, PC-3, 72 h, read-out: Cell Count IC50",9.55 nM
same,Cell Count Activity Area,"PC-3; PC-3, scale 0-10",3.97
same,Relative cell count (%) Mean,PC-3; 1.00E+00 microM,42.2%
same,Relative cell count (%) Mean,PC-3; 1.00E−01 microM,47.9%
same,Relative cell count (%) Mean,PC-3; 1.00E−02 microM,53.6%
same,Relative cell count (%) Mean,PC-3; 1.00E−03 microM,59.2%
same,Relative cell count (%) Mean,PC-3; 1.01E−04 microM,87.3%
same,Relative cell count (%) Mean,PC-3; 3.16E−01 microM,43.8%
same,Relative cell count (%) Mean,PC-3; 3.17E−02 microM,47.1%
same,Relative cell count (%) Mean,PC-3; 3.17E−03 microM,59.0%
same,Relative cell count (%) Mean,PC-3; 3.18E−04 microM,69.1%
same,Relative cell count (%) Mean,PC-3; 3.18E−05 microM,93.7%
